Data as given in US9493466B2, “Treatment of cancer with TOR kinase inhibitors” (Signal Pharmaceuticals, LLC, priority 2011, dated 2016).

Legend:
Assay in all cases: Apoptosis assay for NHL lines (Caspase 3/7-Glo)
Format in all cases: cell-based
[1] = system: KARPAS-299; conditions: KARPAS-299, ALCL T-cell, 24 hours, n = 1
Protocol: (§1) Apoptosis Assay for NHL Lines. Prior to testing, cells were grown and expanded in culture flasks to provide sufficient amounts of starting material. Cells were then diluted to their desired densities and added directly to compound-spotted 384-well plates. Cells were allowed to grow for 24 hours in 5% CO2 at 37° C. The apoptotic response was assessed by quantifying the activities of caspase 3 and caspase 7 (Caspase 3/7-Glo) in treated cells and control cells at the 24-hour time point. All data was normalized and represented as a value relative to the DMSO-treated cells. Results were then expressed as CalX, which is the minimum compound concentration required to double the levels of caspase 3/7 relative to those of the DMSO-treated cells during their treatment period.

[2] = system: U-2940; conditions: U-2940, NHL DLBCL, 24 hours, n = 1
Protocol: as §1

[3] = system: THP-1; conditions: THP-1, Leukemia M-AML, 24 hours, n = 1
Protocol: as §1

[4] = system: JVM-2; conditions: JVM-2, NHL MCL, 24 hours, n = 1
Protocol: as §1

[5] = system: WSU-FSCCL; conditions: NHL FL, 24 hours, n = 1
Protocol: as §1

[6] = system: SU-DHL-1; conditions: SU-DHL-1, ALCL T-cell, 24 hours, n = 1
Protocol: as §1

[7] = system: SU-DHL-16; conditions: SU-DHL-16, NHL DLBCL, 24 hours, n = 1
Protocol: as §1

[8] = system: JVM-13; conditions: JVM-13, NHL MCL, 24 hours, n = 1
Protocol: as §1

[9] = system: KG-1; conditions: KG-1, Leukemia M-AML, 24 hours, n = 1
Protocol: as §1

[10] = system: KARPAS-1106P; conditions: NHL DLBCL, 24 hours, n = 1
Protocol: as §1

[11] = system: OCI-LY-10; conditions: OCI-LY-10, NHL DLBCL, 24 hours, n = 1
Protocol: as §1

[12] = system: Toledo; conditions: NHL DLBCL, 24 hours, n = 1
Protocol: as §1

[13] = system: Pfeiffer; conditions: NHL DLBCL, 24 hours, n = 1
Protocol: as §1

[14] = system: HL-60; conditions: HL-60, Leukemia M-AML, 24 hours, n = 1
Protocol: as §1

[15] = system: Granta-519; conditions: Granta-519, NHL MCL, 24 hours, n = 1
Protocol: as §1

[16] = system: U-2932; conditions: U-2932, NHL DLBCL, 24 hours, n = 1
Protocol: as §1

[17] = system: KASUMI-1; conditions: KASUMI-1, Leukemia M-AML, 24 hours, n = 1
Protocol: as §1

[18] = system: KARPAS-422; conditions: KARPAS-422, NHL DLBCL, 24 hours, n = 1
Protocol: as §1

[19] = system: OCI-LY-7; conditions: OCI-LY-7, NHL DLBCL, 24 hours, n = 1
Protocol: as §1

[20] = system: SU-DHL-5; conditions: SU-DHL-5, NHL DLBCL, 24 hours, n = 1
Protocol: as §1

[21] = system: OCI-LY-19; conditions: OCI-LY-19, NHL DLBCL, 24 hours, n = 1
Protocol: as §1

[22] = system: SC-1; conditions: SC-1, NHL FL, 24 hours, n = 1
Protocol: as §1

[23] = system: DOHH-2; conditions: DOHH-2, NHL FL, 24 hours, n = 1
Protocol: as §1

[24] = system: RC-K8; conditions: RC-K8, NHL DLBCL, 24 hours, n = 1
Protocol: as §1

[25] = system: Farage; conditions: NHL DLBCL, 24 hours, n = 1
Protocol: as §1

[26] = system: HT; conditions: NHL DLBCL, 24 hours, n = 1
Protocol: as §1

[27] = system: SU-DHL-4; conditions: SU-DHL-4, NHL DLBCL, 24 hours, n = 1
Protocol: as §1

[28] = system: RIVA; conditions: NHL DLBCL, 24 hours, n = 1
Protocol: as §1

[29] = system: DB; conditions: NHL DLBCL, 24 hours, n = 1
Protocol: as §1

[30] = system: JEKO-1; conditions: JEKO-1, NHL MCL, 24 hours, n = 1
Protocol: as §1

[31] = system: SU-DHL-8; conditions: SU-DHL-8, NHL DLBCL, 24 hours, n = 1
Protocol: as §1

[32] = system: SU-DHL-10; conditions: SU-DHL-10, NHL DLBCL, 24 hours, n = 1
Protocol: as §1

[33] = system: NU-DHL-1; conditions: NU-DHL-1, NHL DLBCL, 24 hours, n = 1
Protocol: as §1

[34] = system: REC-1; conditions: REC-1, NHL MCL, 24 hours, n = 1
Protocol: as §1

CO[C@H]1CC[C@H](N2C(=O)CNc3ncc(-c4ccc(C(C)(C)O)nc4)nc32)CC1 [Compound 1, 7-(6-(2-hydroxypropan-2-yl)pyridin-3-yl)-1-((1r,4r)-4-methoxycyclohexyl)-3,4-dihydropyrazino-[2,3-b]pyrazin-2(1H)-one]
Apoptotic [1]: N/Y | CalX (minimum concentration to double caspase 3/7) [1]: 9.61 | CalX (minimum concentration to double caspase 3/7) [2]: 0.43 | Apoptotic [3]: N/Y | CalX (minimum concentration to double caspase 3/7) [3]: 7.57 | Apoptotic [4]: N/Y | CalX (minimum concentration to double caspase 3/7) [4]: 3.2 | CalX (minimum concentration to double caspase 3/7) [5]: 0.16 | CalX (minimum concentration to double caspase 3/7) [6]: 10 | CalX (minimum concentration to double caspase 3/7) [7]: 0.11 | Apoptotic [8]: N/Y | CalX (minimum concentration to double caspase 3/7) [8]: 4.27 | CalX (minimum concentration to double caspase 3/7) [9]: 10 | CalX (minimum concentration to double caspase 3/7) [10]: 0.25 | CalX (minimum concentration to double caspase 3/7) [11]: 0.7 | Apoptotic [12]: N/Y | CalX (minimum concentration to double caspase 3/7) [12]: 3.48 | CalX (minimum concentration to double caspase 3/7) [13]: 10 | CalX (minimum concentration to double caspase 3/7) [14]: 10 | CalX (minimum concentration to double caspase 3/7) [15]: 10 | CalX (minimum concentration to double caspase 3/7) [16]: 2.04 | Apoptotic [17]: N/Y | CalX (minimum concentration to double caspase 3/7) [17]: 6.52 | Apoptotic [18]: N/Y | CalX (minimum concentration to double caspase 3/7) [18]: 5.16 | CalX (minimum concentration to double caspase 3/7) [19]: 0.07 | CalX (minimum concentration to double caspase 3/7) [20]: 0.59 | CalX (minimum concentration to double caspase 3/7) [21]: 1.13 | CalX (minimum concentration to double caspase 3/7) [22]: 10 | CalX (minimum concentration to double caspase 3/7) [23]: 0.14 | Apoptotic [24]: N/Y | CalX (minimum concentration to double caspase 3/7) [24]: 6.51 | CalX (minimum concentration to double caspase 3/7) [25]: 0.47 | Apoptotic [26]: N/Y | CalX (minimum concentration to double caspase 3/7) [26]: 5.62 | Apoptotic [27]: N/Y | CalX (minimum concentration to double caspase 3/7) [27]: 5.15 | Apoptotic [28]: N/Y | CalX (minimum concentration to double caspase 3/7) [28]: 3.84 | Apoptotic [29]: N/Y | CalX (minimum concentration to double caspase 3/7) [29]: 5.44 | CalX (minimum concentration to double caspase 3/7) [30]: 0.56 | CalX (minimum concentration to double caspase 3/7) [31]: 0.07 | CalX (minimum concentration to double caspase 3/7) [32]: 0.54 | CalX (minimum concentration to double caspase 3/7) [33]: 0.41 | CalX (minimum concentration to double caspase 3/7) [34]: 0.79
